From article PMC6072100, “Exploring the links between peptoid antibacterial activity and toxicity” (MedChemComm, 2017)
Read-outs that look alike come from different tables or passages of the source. Square brackets hold non-standard residues; d marks the D form. Peptide text beside a SMILES is read from it. Nspe = C[C@H](NCC(=O)O)c1ccccc1; NhArg = N=C(N)NCCCCNCC(=O)O; NPentylGly = CCCCCNCC(=O)O

How the values were obtained:
Format in all cases: cell-based
[1] = test system: Pseudomonas aeruginosa PA01 (ATCC 15692)
In short: (§1)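 Single colonies were grown 16–18 h at 37 °C in Iso-sensitest broth, brought to A650nm 0.07 and diluted tenfold. This inoculum met doubling dilutions of each peptoid (2–100 µM final), then incubated 16 h at 37 °C shaking before absorbance measurement.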

[2] = test system: Escherichia coli K-12 wild-type strain (W3110/ATCC27325); conditions: for MIC E. coli: lowest concentration completely inhibiting growth, 37 °C, 16 h, range 2–100 μM
In short: as §1

[3] = test system: Staphylococcus aureus (3R7089 strain Oxford/ATCC9144); conditions: lowest concentration completely inhibiting growth, 37 °C, 16 h; range 2–100 μM
In short: as §1

[4] = test system: Staphylococcus epidermidis (laboratory strain from clinical isolate); conditions: lowest concentration completely inhibiting growth, 37 °C, 16 h; range 2–100 μM
In short: as §1

[5] = lowest concentration completely inhibiting growth, 37 °C, 16 h, range 2–100 μM

Compound	MIC P. aeruginosa [1, 5] [µM]	MIC E. coli [2] [µM]	MIC S. aureus [3] [µM]	MIC S. epidermidis [4] [µM]	MIC P. aeruginosa ([1]; ATCC 15692, 16 h) [µM]	activity against P. aeruginosa (in words) [1]	activity against E. coli (in words) [2]
CCCCCNCC(=O)N(CC(=O)N(CC(=O)N(CCCCN)CC(=O)N(CC(=O)N(CC(=O)N(CCCCN)CC(=O)N(CC(=O)N(CC(=O)N(CCCCN)CC(=O)N(CC(=O)N(CC(N)=O)[C@@H](C)c1ccccc1)[C@@H](C)c1ccccc1)[C@@H](C)c1ccccc1)[C@@H](C)c1ccccc1)[C@@H](C)c1ccccc1)[C@@H](C)c1ccccc1)[C@@H](C)c1ccccc1)[C@@H](C)c1ccccc1 [Peptoid 30, (NamyNspeNspe)[(NLysNspeNspe)]3]	50	50	2	2	–	–	–
CCCCCNCC(=O)N(CC(=O)N(CC(=O)N(CCCCC)CC(=O)N(CC(=O)N(CC(=O)N(CCCCN)CC(=O)N(CC(=O)N(CC(=O)N(CCCCN)CC(=O)N(CC(=O)N(CC(N)=O)[C@@H](C)c1ccccc1)[C@@H](C)c1ccccc1)[C@@H](C)c1ccccc1)[C@@H](C)c1ccccc1)[C@@H](C)c1ccccc1)[C@@H](C)c1ccccc1)[C@@H](C)c1ccccc1)[C@@H](C)c1ccccc1 [Peptoid 31, (NamyNspeNspe)2(NLysNspeNspe)2]	100	>100	2	1	>100	–	–
CCCCCN(CC(=O)N(CC(=O)N(CC(=O)N(CCCCN)CC(=O)N(CC(=O)N(CC(N)=O)[C@@H](C)c1ccccc1)[C@@H](C)c1ccccc1)[C@@H](C)c1ccccc1)[C@@H](C)c1ccccc1)C(=O)CN(C(=O)CN(C(=O)CN(CCCCN)C(=O)CN(C(=O)CN(C(=O)CNCCCCN)[C@@H](C)c1ccccc1)[C@@H](C)c1ccccc1)[C@@H](C)c1ccccc1)[C@@H](C)c1ccccc1 [Peptoid 32, (NLysNspeNspe)2(NamyNspeNspe)(NLysNspeNspe)]	100	>100	6	2	>100	–	–
C[C@@H](c1ccccc1)N(CC(N)=O)C(=O)CN(C(=O)CN(CCCCNC(=N)N)C(=O)CN(C(=O)CN(C(=O)CN(CCCCNC(=N)N)C(=O)CN(C(=O)CN(C(=O)CN(CCCCNC(=N)N)C(=O)CN(C(=O)CN(C(=O)CNCCCCNC(=N)N)[C@@H](C)c1ccccc1)[C@@H](C)c1ccccc1)[C@@H](C)c1ccccc1)[C@@H](C)c1ccccc1)[C@@H](C)c1ccccc1)[C@@H](C)c1ccccc1)[C@@H](C)c1ccccc1 [Peptoid 34, (NhArgNspeNspe)4] (H-[NhArg][Nspe][Nspe][NhArg][Nspe][Nspe][NhArg][Nspe][Nspe][NhArg][Nspe][Nspe]-NH2)	13	6	1	1	–	–	–
CCCCCNCC(=O)N(CC(=O)N(CC(=O)N(CCCCNC(=N)N)CC(=O)N(CC(=O)N(CC(=O)N(CCCCC)CC(=O)N(CC(=O)N(CC(=O)N(CCCCNC(=N)N)CC(=O)N(CC(=O)N(CC(N)=O)[C@@H](C)c1ccccc1)[C@@H](C)c1ccccc1)[C@@H](C)c1ccccc1)[C@@H](C)c1ccccc1)[C@@H](C)c1ccccc1)[C@@H](C)c1ccccc1)[C@@H](C)c1ccccc1)[C@@H](C)c1ccccc1 [Peptoid 40, [(NamyNspeNspe)(NhArgNspeNspe)]2] (H-[NPentylGly][Nspe][Nspe][NhArg][Nspe][Nspe][NPentylGly][Nspe][Nspe][NhArg][Nspe][Nspe]-NH2)	100	>100	3	6	>100	not active	not active
(NhArgNmfbNmfb)4 [Peptoid 36]	13	13	2	2	–	–	–
